According to patent US4877803A, “Bis-dioxopiperazine derivatives and pharmaceutical compositions containing the same” (Zenyaku Kogyo Kabushiki Kaisha, priority 1985, dated 1989):

What was measured:
[1] = tested on: P388 lymphocytic leukemia cells; experiment: Growth inhibition of tumor cells in vitro; type: cell-based; conditions: Mus musculus, 48 hours at 37° C., read-out: IC50 (50% inhibitory concentration of cell growth)
Experimental: (I) Growth Inhibition of Tumor Cells in Vitro:
Tumor cells were collected aseptically with capillary tube from ascites in CDF1 male mice transplanted intraperitoneally with 1×10^6 cells of P388 lymphocytic leukemia 5 days Before. Cell suspension was prepared at 5×10^4 cells/0.5 ml in a RPMI1640 medium supplemented with 10% fetal calf serum, Kanamycin (0.1 mg/ml) and 2-hydroxyethyldisulfide (0.01 mm). Each sample was dissolved or suspended in the medium at a concentration of 1×10^-1 -1×10^-5 mM/ml.
A test tube with Molton stopper loosely involving 0.5 ml each of the cell suspension and the sample suspension was kept for 48 hours at 37° C. in an incubator supplied with air containing 5% carbon dioxide. Then, after addition of 4 ml of 0.25% trypsin solution, the tube was shaken for 5 minutes at 37° C. The cells harvested therefrom was counted by using of a Coulter Counter and the inhibition of cell growth was calculated by the following formula: [formula] T: number of cells in the culture containing test compound. C: number of cells in the culture of control
50% Inhibitory concentration of cell growth (IC50) was calculated based on the inhibition in various concentrations of test compound and is shown in Table I.

[2] = tested on: P388 lymphocytic leukemia; experiment: Increase in life span on tumor-transplanted mouse (P388); type: in vivo, mouse (CDF1); conditions: intraperitoneal, 1 day after transplantation and on 5th day
Experimental: (II) Increase in Life Span on Tumor-transplanted Mouse: The treated group to which the compound of the present invention was administered consisted of seven mice, while the control group consisted of ten mice. Six weeks old male mice (CDF1, 25±2 g of body weight) were employed as host animals.
Tumor cells (1.0×10^6) of P388 lymphocytic leukemia were transplanted intraperitoneally into each mouse. The treatment was effected one day after the transplantation and on 5th day by administering prescribed dose of each test compound intraperitoneally to the mice.
Antitumor activity of the test compound was evaluated by the rate of increase in life span (ILS) which was calculated with the following formula. [formula] T': median survival time of treated mice C': median survival time of control mice

[3] = Acute toxicity test in mice; conditions: mouse, in vivo, ip; male ICR mice, intraperitoneal, observed for 14 days, Litchfield-Wilcoxon method
Experimental: The acute toxicity of the compounds of the present invention was examined by the following test.
The test group to which the compound of the present invention was administered consisted of ten mice. Five weeks old male mice (ICR, 25±2 g of body weight) were employed as test animals.

SMILES | IC50 [1] [nM] | ILS (rate of increase in life span) ([2]; daily dose 3.0 mg/kg) [%] | further results
C[C@H]([C@H](C)N1CC(=O)N(CN2CCSCC2)C(=O)C1)N1CC(=O)N(CN2CCSCC2)C(=O)C1 [(2), meso-2,3-bis(4-thiomorpholinomethyl-3,5-dioxopiperazin-1-yl)butane] | 230 | – | ILS (rate of increase in life span) ([2]; daily dose 1.8 mg/kg): > 194%
C[C@H]([C@H](C)N1CC(=O)N(CN2CCOCC2)C(=O)C1)N1CC(=O)N(CN2CCOCC2)C(=O)C1 [(1), meso-2,3-bis(4-morpholinomethyl-3,5-dioxopiperazin-1-yl)butane] | 61 | 165 | LD50 at 336 h [3]: 10.7 mg/kg
C[C@H]([C@H](C)N1CC(=O)N(CN2CCCCC2)C(=O)C1)N1CC(=O)N(CN2CCCCC2)C(=O)C1 [(4), meso-2,3-bis(4-piperoidinomethyl-3,5-dioxopiperazin-1-yl)butane] | 47 | – | –
C[C@H]([C@H](C)N1CC(=O)N(CN2CCN(c3ccccc3)CC2)C(=O)C1)N1CC(=O)N(CN2CCN(c3ccccc3)CC2)C(=O)C1 [(3), meso-2,3-bis[4-(N-phenylpiperazinomethyl)-3,5-dioxopiperazin-1-yl]butane] | 22 | – | ILS (rate of increase in life span) ([2]; daily dose 3.4 mg/kg): 78%

Further lines, with some results ahead:

IC50 [1] [nM] | SMILES | ILS (rate of increase in life span) ([2]; daily dose 3.0 mg/kg) [%] | further results
2400 | O=C1CN(CCN2CC(=O)N(CN3CCOCC3)C(=O)C2)CC(=O)N1CN1CCOCC1 [(A), 1,2-bis(4-morpholinomethyl-3,5-dioxopiperazin-1-yl)ethane] | 2 | ILS (rate of increase in life span) ([2]; daily dose 100 mg/kg (adequate dose)): 60%
1600 | CC(CN1CC(=O)N(CN2CCOCC2)C(=O)C1)N1CC(=O)N(CN2CCOCC2)C(=O)C1 (racemic) [(B), dl-1,2-bis(4-morpholinomethyl-3,5-dioxopiperazin-1-yl)propane] | 1 | ILS (rate of increase in life span) ([2]; daily dose 200 mg/kg (adequate dose)): 47%
12 | CC1CC(C)CN(CN2C(=O)CN([C@H](C)[C@H](C)N3CC(=O)N(CN4CC(C)CC(C)C4)C(=O)C3)CC2=O)C1 (stereo partly drawn) [(5), meso-2,3-bis[4-(3,5-dimethylpiperidinomethyl)-3,5-dioxopiperazin-1-yl]butane] | – | –
